Experimental data taken from PubChem BioAssay (NCI).
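Results reflect a 48-hour exposure of cells in 96-well plates to compound at five concentrations. GI50 = concentration required for 50% inhibition of growth. At the TGI there is no net growth.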

Tests used:
Experiment in all cases: inhibition of tumour cell growth, NCI panel, 48 h
[1] = tested on: HL-60(TB) leukemia
[2] = tested on: BT-549 breast
[3] = tested on: OVCAR-5 ovarian
[4] = tested on: UO-31 renal
[5] = tested on: SK-MEL-28 melanoma
[6] = tested on: K-562 leukemia
[7] = tested on: RXF 393 renal
[8] = tested on: HCC-2998 colon
[9] = tested on: A549 NSCLC
[10] = tested on: COLO 205 colon
[11] = tested on: SNB-75 CNS
[12] = tested on: HT29 colon
[13] = tested on: SN12C renal
[14] = tested on: M14 melanoma
[15] = tested on: SK-MEL-5 melanoma
[16] = tested on: SK-OV-3 ovarian
[17] = tested on: 786-0 renal
[18] = tested on: MCF7 breast
[19] = tested on: RPMI-8226 leukemia
[20] = tested on: SK-MEL-2 melanoma
[21] = tested on: NCI-H460 lung
[22] = tested on: MALME-3M melanoma
[23] = tested on: NCI/ADR-RES ovarian
[24] = tested on: T-47D breast
[25] = tested on: NCI-H226 lung
[26] = tested on: SF-295 CNS
[27] = tested on: NCI-H522 lung
[28] = tested on: PC-3 prostate
[29] = tested on: UACC-62 melanoma
[30] = tested on: NCI-H23 lung
[31] = tested on: OVCAR-3 ovarian
[32] = tested on: SR leukemia
[33] = tested on: HS 578T breast
[34] = tested on: U251 CNS
[35] = tested on: MDA-MB-231 breast
[36] = tested on: CAKI-1 renal
[37] = tested on: A498 renal
[38] = tested on: SF-539 CNS
[39] = tested on: OVCAR-4 ovarian
[40] = tested on: HCT-116 colon
[41] = tested on: HOP-92 NSCLC
[42] = tested on: TK-10 renal
[43] = tested on: UACC-257 melanoma
[44] = tested on: HOP-62 NSCLC
[45] = tested on: ACHN renal
[46] = tested on: HCT-15 colon
[47] = tested on: DU-145 prostate
[48] = tested on: KM12 colon
[49] = tested on: MDA-MB-435
[50] = tested on: SF-268 CNS
[51] = tested on: SW-620 colon
[52] = tested on: SNB-19 CNS
[53] = tested on: IGROV1 ovarian

Question: Which GI50 [1] does the source give for `CC(=O)Oc1cc(C(C)C)c(OCCN(C)C)cc1C` here?
Answer: Its GI50 is over 100 µM.

Question: What about the TGI [1] of the same compound?
Answer: The TGI was over 100 µM.

Question: And the GI50 [2]?
Answer: Its GI50 is over 100 µM.

Question: And the TGI [2]?
Answer: The TGI was over 100 µM.

Question: And the GI50 [3]?
Answer: Its GI50 is over 100 µM.

Question: What about the TGI [3] of the same compound?
Answer: Its TGI is over 100 µM.

Question: What about the GI50 [4] of the same compound?
Answer: Its GI50 is over 100 µM.

Question: What about the TGI [4] of the same compound?
Answer: Its TGI is over 100 µM.

Question: And the GI50 [5]?
Answer: The GI50 was over 100 µM.

Question: And the TGI [5]?
Answer: Its TGI is over 100 µM.

Question: And the GI50 [6]?
Answer: Its GI50 is over 100 µM.

Question: And the TGI [6]?
Answer: Its TGI is over 100 µM.

Question: What about the GI50 [7] of the same compound?
Answer: The GI50 was over 100 µM.

Question: And the TGI [7]?
Answer: The TGI was over 100 µM.

Question: And the GI50 [8]?
Answer: The GI50 was over 100 µM.

Question: And the TGI [8]?
Answer: The TGI was over 100 µM.

Question: What about the GI50 [9] of the same compound?
Answer: Its GI50 is over 100 µM.

Question: And the TGI [9]?
Answer: The TGI was over 100 µM.

Question: What about the GI50 [10] of the same compound?
Answer: The GI50 was over 100 µM.

Question: What about the TGI [10] of the same compound?
Answer: Its TGI is over 100 µM.

Question: And the GI50 [11]?
Answer: The GI50 was 50.9 µM.

Question: And the TGI [11]?
Answer: Its TGI is over 100 µM.

Question: And the GI50 [12]?
Answer: The GI50 was over 100 µM.

Question: And the TGI [12]?
Answer: The TGI was over 100 µM.

Question: What about the GI50 [13] of the same compound?
Answer: The GI50 was over 100 µM.

Question: What about the TGI [13] of the same compound?
Answer: Its TGI is over 100 µM.

Question: And the GI50 [14]?
Answer: Its GI50 is over 100 µM.

Question: And the TGI [14]?
Answer: The TGI was over 100 µM.

Question: What about the GI50 [15] of the same compound?
Answer: The GI50 was over 100 µM.

Question: What about the TGI [15] of the same compound?
Answer: Its TGI is over 100 µM.

Question: What about the GI50 [16] of the same compound?
Answer: The GI50 was over 100 µM.

Question: What about the TGI [16] of the same compound?
Answer: Its TGI is over 100 µM.

Question: And the GI50 [17]?
Answer: Its GI50 is over 100 µM.

Question: What about the TGI [17] of the same compound?
Answer: Its TGI is over 100 µM.

Question: What about the GI50 [18] of the same compound?
Answer: The GI50 was over 100 µM.

Question: What about the TGI [18] of the same compound?
Answer: The TGI was over 100 µM.

Question: And the GI50 [19]?
Answer: Its GI50 is over 100 µM.

Question: And the TGI [19]?
Answer: Its TGI is over 100 µM.

Question: And the GI50 [20]?
Answer: The GI50 was over 100 µM.

Question: What about the TGI [20] of the same compound?
Answer: Its TGI is over 100 µM.

Question: And the GI50 [21]?
Answer: Its GI50 is over 100 µM.

Question: And the TGI [21]?
Answer: Its TGI is over 100 µM.

Question: And the GI50 [22]?
Answer: The GI50 was over 100 µM.

Question: What about the TGI [22] of the same compound?
Answer: Its TGI is over 100 µM.

Question: And the GI50 [23]?
Answer: Its GI50 is over 100 µM.

Question: And the TGI [23]?
Answer: The TGI was over 100 µM.

Question: And the GI50 [24]?
Answer: Its GI50 is over 100 µM.

Question: And the TGI [24]?
Answer: The TGI was over 100 µM.

Question: What about the GI50 [25] of the same compound?
Answer: Its GI50 is over 100 µM.

Question: And the TGI [25]?
Answer: Its TGI is over 100 µM.

Question: And the GI50 [26]?
Answer: The GI50 was over 100 µM.

Question: What about the TGI [26] of the same compound?
Answer: The TGI was over 100 µM.

Question: What about the GI50 [27] of the same compound?
Answer: Its GI50 is over 100 µM.

Question: What about the TGI [27] of the same compound?
Answer: Its TGI is over 100 µM.

Question: And the GI50 [28]?
Answer: Its GI50 is over 100 µM.

Question: What about the TGI [28] of the same compound?
Answer: The TGI was over 100 µM.

Question: And the GI50 [29]?
Answer: Its GI50 is over 100 µM.

Question: And the TGI [29]?
Answer: Its TGI is over 100 µM.

Question: And the GI50 [30]?
Answer: The GI50 was over 100 µM.

Question: And the TGI [30]?
Answer: Its TGI is over 100 µM.

Question: What about the GI50 [31] of the same compound?
Answer: The GI50 was over 100 µM.

Question: And the TGI [31]?
Answer: The TGI was over 100 µM.

Question: What about the GI50 [32] of the same compound?
Answer: The GI50 was over 100 µM.

Question: What about the TGI [32] of the same compound?
Answer: Its TGI is over 100 µM.

Question: What about the GI50 [33] of the same compound?
Answer: Its GI50 is over 100 µM.

Question: What about the TGI [33] of the same compound?
Answer: The TGI was over 100 µM.

Question: What about the GI50 [34] of the same compound?
Answer: The GI50 was over 100 µM.

Question: And the TGI [34]?
Answer: Its TGI is over 100 µM.

Question: What about the GI50 [35] of the same compound?
Answer: The GI50 was over 100 µM.

Question: What about the TGI [35] of the same compound?
Answer: The TGI was over 100 µM.

Question: What about the GI50 [36] of the same compound?
Answer: Its GI50 is over 100 µM.

Question: What about the TGI [36] of the same compound?
Answer: The TGI was over 100 µM.

Question: And the GI50 [37]?
Answer: The GI50 was over 100 µM.

Question: And the TGI [37]?
Answer: Its TGI is over 100 µM.

Question: What about the GI50 [38] of the same compound?
Answer: Its GI50 is over 100 µM.

Question: What about the TGI [38] of the same compound?
Answer: The TGI was over 100 µM.

Question: And the GI50 [39]?
Answer: The GI50 was over 100 µM.

Question: And the TGI [39]?
Answer: The TGI was over 100 µM.

Question: And the GI50 [40]?
Answer: The GI50 was over 100 µM.

Question: What about the TGI [40] of the same compound?
Answer: The TGI was over 100 µM.

Question: And the GI50 [41]?
Answer: Its GI50 is over 100 µM.

Question: And the TGI [41]?
Answer: Its TGI is over 100 µM.

Question: What about the GI50 [42] of the same compound?
Answer: The GI50 was over 100 µM.

Question: And the TGI [42]?
Answer: The TGI was over 100 µM.

Question: And the GI50 [43]?
Answer: The GI50 was over 100 µM.

Question: And the TGI [43]?
Answer: The TGI was over 100 µM.

Question: And the GI50 [44]?
Answer: The GI50 was over 100 µM.

Question: And the TGI [44]?
Answer: Its TGI is over 100 µM.

Question: And the GI50 [45]?
Answer: The GI50 was over 100 µM.

Question: And the TGI [45]?
Answer: The TGI was over 100 µM.

Question: What about the GI50 [46] of the same compound?
Answer: Its GI50 is over 100 µM.

Question: What about the TGI [46] of the same compound?
Answer: The TGI was over 100 µM.

Question: And the GI50 [47]?
Answer: Its GI50 is over 100 µM.

Question: What about the TGI [47] of the same compound?
Answer: Its TGI is over 100 µM.

Question: And the GI50 [48]?
Answer: Its GI50 is over 100 µM.

Question: And the TGI [48]?
Answer: The TGI was over 100 µM.

Question: And the GI50 [49]?
Answer: The GI50 was over 100 µM.

Question: What about the TGI [49] of the same compound?
Answer: The TGI was over 100 µM.

Question: What about the GI50 [50] of the same compound?
Answer: Its GI50 is over 100 µM.

Question: What about the TGI [50] of the same compound?
Answer: The TGI was over 100 µM.

Question: And the GI50 [51]?
Answer: The GI50 was over 100 µM.

Question: What about the TGI [51] of the same compound?
Answer: Its TGI is over 100 µM.

Question: What about the GI50 [52] of the same compound?
Answer: Its GI50 is over 100 µM.

Question: And the TGI [52]?
Answer: The TGI was over 100 µM.

Question: What about the GI50 [53] of the same compound?
Answer: Its GI50 is over 100 µM.

Question: And the TGI [53]?
Answer: Its TGI is over 100 µM.
